Common to all, as to assay: DTP human tumour cell line panel, 48 h
Assay [1] concerns HT29 colon.
In assay [2] the test system is K-562 leukemia.
Assay [3] relates to LOX IMVI melanoma.
Assay [4] relates to NCI-H226 lung.
Assay [5] relates to NCI-H460 lung.
Assay [6] has as its system NCI-H522 lung.
Assay [7] relates to SF-539 CNS.
Assay [8] has as its system SK-MEL-5 melanoma.
Assay [9] has as its system SNB-19 CNS.
Assay [10] deals with A498 renal.

The structures appear in SMILES notation.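 Each compound was tested at five concentrations against cells in 96-well plates for 48 hours. At the TGI there is no net growth.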

On to `Cc1nc2sc3ccccc3n2c(=O)c1N=Nc1ccc(Cl)cc1`, for which the TGI in [1], in assay [2], in assay [3], in [4], in assay [5] and in assay [6] was more than 100 µM throughout. Further, the TGI in assay [7], in [8] and in assay [9] was more than 100 µM each time.

Consider `COc1ccc(/C=C2\N=C(SC)NC2=O)cc1`, for which the TGI in [1], in [3], in assay [4], in assay [6], in [7] and in assay [8] was more than 100 µM each time. Besides, in assay [9], the TGI (commonly the concentration at which net growth stops) was more than 100 µM.

In the case of `O=C(CN(c1ccccc1)c1ccccc1)n1nnc2ccccc21`, the concentration for total growth inhibition (TGI) in assay [1] is more than 100 µM; in assay [2], more than 100 µM; in assay [3] it was 70.3 µM; in assay [4], more than 100 µM; in assay [5], more than 100 µM; in assay [6] it was 59.1 µM. In addition, the results for the TGI in [7], in [8] and in [9] were more than 100 µM, 69.3 µM and more than 100 µM, respectively.

On to `O=C1c2ccccc2C2(c3ccc(Cl)cc3)N[C@H]3CCCC[C@@H]3N12` (some centres undefined), for which the TGI in assay [10], in [1], in assay [2], in assay [3], in [4] and in [8] was more than 100 µM throughout. This compound came in with a TGI in [9] of more than 100 µM.

Turning to `O=C1O[C@H](c2ccc3c(c2)OCO3)[C@H]2CO[C@@H](c3ccc4c(c3)OCO4)[C@@H]12`, the concentration for total growth inhibition (TGI) in [1], in assay [2], in assay [3], in assay [4], in assay [5] and in assay [6] was more than 100 µM throughout. Moreover, the TGI in assay [7], in [8] and in [9] was more than 100 µM throughout.

As to `Cc1ccc(S(=O)(=O)C(C#N)c2nc3ccccc3nc2-n2ccnc2)cc1` (centres undefined), the TGI in assay [1], in assay [2], in assay [4], in [5], in assay [6] and in [7] was more than 100 µM throughout. The TGI in assay [8] and in [9] was more than 100 µM in each case.

On to `COc1c(C(C)C)cc2c3c1OC(=O)[C@@]31CCCC(C)(C)C1CC2` (some centres undefined), for which the total growth inhibition concentration (TGI) is more than 100 µM in [1]; more than 100 µM in [2]; more than 100 µM in assay [3]; 44.4 µM in [4]; more than 100 µM in assay [5]; 38.7 µM in assay [6]. Besides, the figures for the total growth inhibition concentration (TGI) in assay [7], in [8] and in assay [9] were 44.8 µM, 28.4 µM and 51.8 µM, respectively.

Regarding `CC(C)CC(O)P(=O)(O)O` (centres undefined), the TGI in assay [10], in [1], in assay [2], in assay [4], in assay [5] and in [8] was more than 100 µM each time. The compound also gave a TGI in [9] of more than 100 µM.

Consider `CC(C)NC(=O)OCCN=c1c2ccccc2ccc2ccccc12`, for which the TGI in [1], in assay [2], in [3], in assay [4], in assay [5] and in assay [7] was more than 100 µM in each case. The TGI in assay [8] was 35.8 µM; in assay [9], more than 100 µM.

For `CC(=O)O[C@]12CCCCCC1C1(O)C(O)CCCC[C@H]12` (some centres undefined), the TGI in assay [1], in assay [2], in assay [3], in assay [4], in [5] and in [6] was more than 100 µM throughout. In addition, the TGI in [8] and in assay [9] was more than 100 µM throughout.

`Cc1cc(NCc2ccccc2)c2ccccc2[n+]1CCCCCCCCCC[n+]1c(C)cc(NCc2ccccc2)c2ccccc21`: the TGI is 14.5 µM in assay [10]; 1.63 µM in assay [1]; 44.3 µM in [6]; 1.13 µM in [7]; 0.638 µM in [8]; more than 100 µM in [9].

For the compound `[N-]=[N+]=NC1=C(c2ccccn2)C(=O)c2cccc3cccc1c23`, the TGI in [10] is 31.5 µM; in assay [1] it was more than 100 µM; in [2] it was more than 100 µM; in [3], more than 100 µM; in assay [5], more than 100 µM; in assay [7], more than 100 µM. Also, the results for the TGI in assay [8] and in assay [9] were 22.1 µM and more than 100 µM, respectively.

As for `COc1cccc(/C=N/n2c(C)n[nH]c2=O)c1`, the concentration for total growth inhibition (TGI) in assay [10], in [1], in assay [2], in assay [4], in [5] and in assay [7] was more than 100 µM in each case. The same compound gave a TGI in assay [9] of more than 100 µM.

Consider `Cn1c2ccccc2c(=O)c2cccc(C(=O)NC(CCCN=C(N)N)C(=O)O)c21` (centres undefined), for which the TGI in [1], in [2], in assay [3], in assay [4], in [5] and in assay [7] was more than 100 µM throughout. The TGI in [8] and in assay [9] was more than 100 µM each time.

As for `CCOc1ccc(/C=C2/C(=O)N=C(NC(C)=O)N2C)cc1`, the TGI in assay [10], in assay [1], in assay [3], in [4], in assay [5] and in assay [7] was more than 100 µM throughout. For the same compound, the TGI in assay [8] and in [9] was more than 100 µM throughout.

Regarding `CCOC(=O)C1C2CCC1CC(=NNc1ccc([N+](=O)[O-])cc1[N+](=O)[O-])C2` (centres undefined), the TGI in [1], in assay [2], in [3], in [4], in assay [5] and in assay [6] was more than 50 µM each time. In addition, the TGI in assay [7], in assay [8] and in assay [9] was more than 50 µM in each case.

With `CC(C(O)Cc1ccccc1)N(C)N=Nc1ccc([N+](=O)[O-])cc1` (centres undefined), the TGI was 37.2 µM in [1]; more than 100 µM in [2]; 39.5 µM in assay [4]; 32.3 µM in [5]; 34.7 µM in [8]; more than 100 µM in [9].

In the case of `O=C1/C(=C/c2ccc(Cl)cc2)CSc2ccccc21`, the TGI was more than 100 µM in [10]; 49.6 µM in [1]; 92.1 µM in [2]; 6.21 µM in assay [3]; 45.2 µM in assay [4]; more than 100 µM in assay [5]. The TGI worked out at 35.7 µM in assay [7], 46 µM in assay [8] and 39.4 µM in [9].

Regarding `COc1cc2c3c(c1OC)C1(C=CC(=O)C=C1)C[C@H]3N(C)CC2`, the TGI in assay [1], in assay [3], in assay [4], in assay [5], in assay [6] and in assay [7] was more than 100 µM each time. In addition, the TGI in [8] and in assay [9] was more than 100 µM each time.

Take `CN(C)c1ccc(C2SCC(=O)N2c2ccc(Oc3ccc(Cl)cc3)c(Cl)c2)cc1` (centres undefined): the TGI was 39.8 µM in assay [1]; 39.5 µM in assay [3]; more than 100 µM in assay [4]; 49.4 µM in [5]; 42.9 µM in assay [6]; 40.4 µM in assay [7]. The TGI in assay [8] was determined as 36.8 µM; in [9], 54.8 µM.

As to `On1c(-c2ccccc2)nc2ccccc2c1=S`, the TGI in assay [10] is more than 100 µM; in [1], more than 100 µM; in [2] it was more than 100 µM; in [3], more than 100 µM; in [4] it was more than 100 µM; in [5], 61.8 µM. Further, the concentration for total growth inhibition (TGI) in [7], in assay [8] and in [9] was more than 100 µM in each case.

Regarding `Nc1ccc(S2(c3ccc(N)cc3)C=C(c3ccccc3)C(c3ccccc3)=C2)cc1`, the TGI is more than 90.3 µM in [10]; more than 100 µM in [1]; more than 100 µM in [2]; more than 100 µM in assay [3]; more than 63.3 µM in assay [4]; more than 100 µM in [5]. Moreover, the TGI in assay [7], in assay [8] and in assay [9] was more than 100 µM throughout.

For `S=C(Nc1ccc2c(c1)oc1ccccc12)c1cccnc1`, the TGI was more than 100 µM in assay [1]; more than 100 µM in assay [3]; 96.1 µM in [4]; more than 100 µM in assay [5]; 64 µM in [6]; more than 100 µM in [8]. Further, the TGI in assay [9] was determined as 77.7 µM.

With `OCc1ccc(C2CC(c3ccco3)=NN2c2ccccc2)o1` (centres undefined), the TGI in assay [1], in assay [2], in assay [3], in assay [4], in assay [5] and in [6] was more than 100 µM in each case. The TGI in assay [7], in assay [8] and in assay [9] was more than 100 µM throughout.

Turning to `Cc1ccc(S(=O)(=O)NC(=O)N[C@@H](Cc2cnc[nH]2)C(=O)O)cc1`, the concentration for total growth inhibition (TGI) in assay [1], in [2], in [3], in assay [5], in assay [6] and in assay [7] was more than 100 µM in each case. Also, the TGI in [8] and in assay [9] was more than 100 µM each time.

`Cc1ccc(O)c(-c2cscn2)c1`: the TGI in assay [10] is 70 µM; in assay [1], more than 100 µM; in assay [2] it was more than 100 µM; in [3], more than 100 µM; in assay [5] it was more than 100 µM; in assay [7], more than 100 µM. Besides, the TGI in assay [8] and in assay [9] was more than 100 µM each time.

With `O=C(O)/C=c1/c2ccccc2n2nc3ccccc3c12`, the concentration for total growth inhibition (TGI) in assay [10] is 46 µM; in assay [1], more than 100 µM; in assay [2], more than 100 µM; in assay [3], 78 µM; in [5] it was more than 100 µM; in assay [6] it was 60 µM. The values for the TGI in [7], in assay [8] and in assay [9] were 73.5 µM, 30.4 µM and 87.3 µM, respectively.

In the case of `COc1cc(OC)c(C2c3cc4c(cc3OC(N3CCCC3)C2C)OCO4)c(OC)c1` (centres undefined), the TGI in assay [1] turned out to be 28.7 µM; in assay [2], 58.2 µM; in assay [3], 28.4 µM; in [5] it was 32.5 µM; in assay [6], 48.7 µM; in [7] it was 25.9 µM. Moreover, the values for the TGI in assay [8] and in assay [9] were 29.4 µM and 51.1 µM, respectively.

Turning to `CC(=O)NC1c2ccccc2C(C)(C)C12CCC1(CC2)OCCO1` (centres undefined), the TGI was more than 100 µM in assay [1]; more than 100 µM in assay [2]; more than 100 µM in assay [3]; more than 100 µM in assay [4]; more than 10 µM in assay [5]; more than 100 µM in assay [6]. The TGI in assay [7], in assay [8] and in assay [9] was more than 100 µM each time.

Consider `Nc1[nH]nc2nc3ccc(C(F)(F)F)cc3nc12`, for which the TGI in [10] is more than 100 µM; in [1] it was more than 100 µM; in assay [2], more than 100 µM; in assay [3] it was 50.8 µM; in assay [5], 52.9 µM; in [6], 38.8 µM. Also, the TGI in assay [8] and in assay [9] was more than 100 µM in each case.

Consider `O=c1oc2ccc([N+](=O)[O-])cc2c(Nc2ccc3c(c2)Oc2ccccc2O3)c1[N+](=O)[O-]`, for which the TGI is more than 100 µM in [1]; 86.7 µM in [2]; 94 µM in assay [3]; 87.1 µM in [4]; more than 100 µM in assay [5]; more than 100 µM in [6]. The values for the TGI in assay [7], in assay [8] and in assay [9] were 61.1 µM, 76 µM and more than 100 µM, respectively.

On to `CCC(=O)ONC(=O)Cn1ccc([N+](=O)[O-])n1`, for which the TGI in [1], in assay [2], in [3], in [4], in assay [6] and in assay [7] was more than 100 µM in each case. Moreover, the TGI in assay [8] and in assay [9] was more than 100 µM throughout.

(Values after PubChem BioAssay (NCI).)
